Where a name gives a salt, the structure may show the parent alone. Values belong to the molecule of their own block, whether it stands above or below them.
Tests used:
[1] = Volatility of perfuming compounds (Tables 4 to 10), with top/middle/bottom note type; assay type: physicochemical
Method in brief: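 Note type follows from air volatility (μg/l): bottom 49–0.1, middle 99–50, top 70,000–100. Compounds are listed within watery, green, fruity, citrus, sweet, gourmand and woody families.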

[2] = Odor threshold and odor value of perfuming compounds (Tables 4 to 10)
[3] = Table 6, perfuming compounds having a fruity note
[4] = Table 6, perfuming compounds having a fruity note, note type by volatility
[5] = Table 8, perfuming compounds having a sweet note
[6] = Table 8, perfuming compounds having a sweet note, note type by volatility
[7] = Table 9, perfuming compounds having a gourmand note, note type by volatility
[8] = Table 7, citrus note, top, middle or bottom note
[9] = Table 7, citrus note, equals volatility divided by odor threshold
[10] = Table 4, watery note, top, middle or bottom note
[11] = Table 4, watery note, equals volatility divided by odor threshold
[12] = Table 10, perfuming compounds having a woody note, note type by volatility
[13] = note type (Top/Middle/Bottom) by volatility, perfuming compounds having a green note
[14] = perfuming compounds having a green note

SMILES: CO[C@]1(C)CC[C@@]23C[C@@H]1C(C)(C)[C@@H]2CC[C@H]3C (racemic) [(+−)-8-methoxycedrane]
Type [1, 12]: Bottom
Volatility ([1]; Table 10, woody note): 42.22 μg/l air
Odor Threshold ([2]; Table 10, woody note): 2.09E−02 μg/l air

SMILES: CCOC(C)OC1CCCCCCCCCCC1 (racemic) [(+−)-(1-ethoxyethoxy)cyclododecane]
Type [1, 12]: Bottom
Volatility ([1]; Table 10, woody note): 5.04 μg/l air
Odor Threshold ([2]; Table 10, woody note): 2.51E−02 μg/l air

SMILES: COCC(C)Cc1ccccc1 (racemic) [(+−)-(3-methoxy-2-methylpropyl)benzene]
Volatility [1, 3]: 587.76 μg/l air
Type [1, 4]: TOP (perfuming compounds having a volatility ranging from 70,000 to 100 μg/l in air are referred to as “top notes”)
Volatility (μg/l air) ([1]; Table 7, citrus note): 587.76 μg/l air
Type [1, 8]: Top
Type [1, 13]: Top
Volatility (μg/l air) [1, 14]: 587.76 μg/l air
Odor Threshold (μg/l air) ([2]; Table 7, citrus note): 1.51E−02 μg/l air
Odor Value [2, 9]: 3.89E+04
Odor Threshold (μg/l air) [2, 14]: 1.51E−02 μg/l air

SMILES: CC1=CCC(C(C)(C)O)CC1 (racemic) [(+−)-ALPHA-TERPINEOL]
Type [1, 12]: Top
Volatility ([1]; Table 10, woody note): 172.78 μg/l air
Odor Threshold ([2]; Table 10, woody note): 1.03E−01 μg/l air

SMILES: CC(C)CC1CC(C)(O)CCO1 (racemic) [(+−)-TETRAHYDRO-2-ISOBUTYL-4-METHYL-4(2H)-PYRANOL]
Volatility (μg/l air) ([1]; Table 4, watery note): 79.79 μg/l air
Type [1, 10]: middle (perfuming compounds having a volatility ranging from 99 to 50 μg/l in air are referred to as “middle notes”)
Odor Threshold (μg/l air) ([2]; Table 4, watery note): 1.35E−02 μg/l air
Odor Value [2, 11]: 5.91E+03

SMILES: CC1(C)C2C[C@H]3CCC(=O)C=C3[C@@H]1C2 (single isomer, unassigned; (+))
Type [1, 12]: Bottom
Volatility ([1]; Table 10, woody note): 4.86 μg/l air
Odor Threshold ([2]; Table 10, woody note): 2.86E−05 μg/l air

SMILES: CCC(=O)OCC(C)(C)OC(C)C1CCCC(C)(C)C1 (single isomer, unassigned; (+))
Volatility [1, 3]: 4.39 μg/l air
Type [1, 4]: Bottom
Odor Threshold [2, 3]: 3.69E−04 μg/l air
Odor Value [2, 3]: 1.19E+04

SMILES: O=C1CCCCCCCCCCC(=O)OCCO1 [1,4-dioxacyclohexadecane-5,16-dione]
Volatility [1, 5]: 0.46 μg/l air
Type [1, 6]: Bottom
Odor Threshold [2, 5]: 7.05E−04 μg/l air
Odor Value [2, 5]: 6.55E+02

SMILES: CC(=O)OC(C)CCC=C(C)CCC=C(C)C (stereo not shown) [1,5,9-TRIMETHYL-4,8-DECADIENYL ACETATE]
Volatility (μg/l air) ([1]; Table 4, watery note): 14.74 μg/l air
Type [1, 10]: bottom (perfuming compounds having a volatility ranging from 49 to 0.1 μg/l in air are referred to as “bottom notes”)
Volatility [1, 3]: 14.74 μg/l air
Type [1, 4]: Bottom
Odor Threshold (μg/l air) ([2]; Table 4, watery note): 3.28E−04 μg/l air
Odor Value [2, 11]: 4.49E+04
Odor Threshold [2, 3]: 3.28E−04 μg/l air
Odor Value [2, 3]: 4.49E+04

SMILES: CC(OC=O)C1CCCC(C)(C)C1 (stereo not shown) [1-(3,3-DIMETHYL-1-CYCLOHEXYL)ETHYL FORMATE]
Volatility (μg/l air) ([1]; Table 7, citrus note): 1129.46 μg/l air
Type [1, 8]: Top
Odor Threshold (μg/l air) ([2]; Table 7, citrus note): 2.05E−01 μg/l air
Odor Value [2, 9]: 5.50E+03

SMILES: COc1ccc(C(C)=O)cc1 [1-(4-METHOXYPHENYL)-1-ETHANONE″]
Type [1, 13]: Middle
Volatility (μg/l air) [1, 14]: 50.21 μg/l air
Odor Threshold (μg/l air) [2, 14]: 1.41E−04 μg/l air

SMILES: C=CCCC(=O)C1=CCCC(C)(C)C1 [1-(5,5-dimethyl-1-cyclohexen-1-yl)-4-penten-1-one]
Volatility [1, 3]: 38.43 μg/l air
Type [1, 4]: Bottom
Type [1, 13]: Bottom
Volatility (μg/l air) [1, 14]: 38.43 μg/l air
Odor Threshold [2, 3]: 1.64E−06 μg/l air
Odor Value [2, 3]: 2.34E+07
Odor Threshold (μg/l air) [2, 14]: 1.64E−06 μg/l air

SMILES: CC(=O)OC(CC(C)C)CC(C)C [1-ISOBUTYL-3-METHYLBUTYL ACETATE]
Volatility [1, 3]: 5265.61 μg/l air
Type [1, 4]: TOP (perfuming compounds having a volatility ranging from 70,000 to 100 μg/l in air are referred to as “top notes”)
Type [1, 13]: Top
Volatility (μg/l air) [1, 14]: 5265.61 μg/l air
Odor Threshold (μg/l air) [2, 14]: 1.62E+00 μg/l air

Further lines, with some results ahead:

Volatility [1, 3]: 0.90 μg/l air
Type [1, 4]: Bottom
Volatility [1, 5]: 0.90 μg/l air
Type [1, 6]: Bottom
Volatility ([1]; Table 9, gourmand note): 0.90 μg/l air
Type [1, 7]: Bottom
SMILES: CCCCCCCC1CCCC(=O)O1 (racemic) [(+−)-6-heptyltetrahydro-2H-pyran-2-one]
Odor Threshold [2, 3]: 1.27E−04 μg/l air
Odor Value [2, 3]: 7.06E+03
Odor Threshold [2, 5]: 1.27E−04 μg/l air
Odor Value [2, 5]: 7.06E+03
Odor Threshold ([2]; Table 9, gourmand note): 1.27E−04 μg/l air

Volatility [1, 3]: 9.61 μg/l air
Type [1, 4]: Bottom
Volatility [1, 5]: 9.61 μg/l air
Type [1, 6]: Bottom
Volatility ([1]; Table 9, gourmand note): 9.61 μg/l air
Type [1, 7]: Bottom
SMILES: CCCCCC1CCCC(=O)O1 (racemic) [(+−)-6-pentyltetrahydro-2H-pyran-2-one]
Odor Threshold [2, 3]: 3.72E−05 μg/l air
Odor Value [2, 3]: 2.58E+05
Odor Threshold [2, 5]: 3.72E−05 μg/l air
Odor Value [2, 5]: 2.58E+05
Odor Threshold ([2]; Table 9, gourmand note): 3.72E−05 μg/l air

Volatility [1, 3]: 57.43 μg/l air
Type [1, 4]: Middle
Volatility (μg/l air) ([1]; Table 7, citrus note): 57.43 μg/l air
Type [1, 8]: Middle
SMILES: CCCC1CCCC(=O)O1 (racemic) [(+−)-6-propyltetrahydro-2H-pyran-2-one]
Odor Threshold [2, 3]: 2.17E−04 μg/l air
Odor Value [2, 3]: 2.65E+05
Odor Threshold (μg/l air) ([2]; Table 7, citrus note): 2.17E−04 μg/l air
Odor Value [2, 9]: 2.65E+05

Volatility (μg/l air) ([1]; Table 4, watery note): 12.81 μg/l air
SMILES: CC(CC=O)CCCC(C)(C)O (racemic) [(+−)-7-hydroxy-3,7-dimethyloctanal]
Type [1, 10]: bottom (perfuming compounds having a volatility ranging from 49 to 0.1 μg/l in air are referred to as “bottom notes”)
Odor Threshold (μg/l air) ([2]; Table 4, watery note): 6.98E−03 μg/l air
Odor Value [2, 11]: 1.84E+03

Volatility [1, 3]: 64.15 μg/l air
Type [1, 4]: Middle
Type [1, 13]: Middle
Volatility (μg/l air) [1, 14]: 64.15 μg/l air
SMILES: CC/C=C(\C)C(O)CCCCC (racemic) [(+−)-(E)-4-METHYL-3-DECEN-5-OL]
Odor Threshold [2, 3]: 6.78E−04 μg/l air
Odor Value [2, 3]: 9.46E+04
Odor Threshold (μg/l air) [2, 14]: 6.78E−04 μg/l air

Volatility [1, 5]: 2276.17 μg/l air
Type [1, 6]: Top
Type [1, 13]: Top
Volatility (μg/l air) [1, 14]: 2276.17 μg/l air
SMILES: CCOC(=O)C(=O)C(C)CC (racemic) [(+−)-ETHYL 3-METHYL-2-OXOPENTANOATE]
Odor Threshold [2, 5]: 5.06E−04 μg/l air
Odor Value [2, 5]: 4.50E+06
Odor Threshold (μg/l air) [2, 14]: 5.06E−04 μg/l air

Volatility [1, 3]: 51367.63 μg/l air
Volatility (μg/l air) ([1]; Table 7, citrus note): 51367.63 μg/l air
Type [1, 8]: Top
SMILES: CCC(C)C(=O)OC(C)C (racemic) [(+−)-ISOPROPYL 2-METHYLBUTANOATE]
Type [1, 4]: TOP (perfuming compounds having a volatility ranging from 70,000 to 100 μg/l in air are referred to as “top notes”)
Odor Threshold (μg/l air) ([2]; Table 7, citrus note): 8.42E−03 μg/l air
Odor Value [2, 9]: 6.10E+06

Volatility [1, 3]: 21.05 μg/l air
Type [1, 4]: Bottom
Volatility [1, 5]: 21.05 μg/l air
Type [1, 6]: Bottom
Volatility ([1]; Table 9, gourmand note): 21.05 μg/l air
Type [1, 7]: Bottom
SMILES: CCCCC[C@@H]1OC(=O)C[C@H]1C (racemic) [(+−)-TRANS-3-METHYL-4-NONANOLIDE]
Odor Threshold [2, 3]: 8.33E−04 μg/l air
Odor Value [2, 3]: 2.53E+04
Odor Threshold [2, 5]: 8.33E−04 μg/l air
Odor Value [2, 5]: 2.53E+04
Odor Threshold ([2]; Table 9, gourmand note): 8.33E−04 μg/l air

Volatility [1, 3]: 83769.16 μg/l air
Type [1, 13]: Top
Volatility (μg/l air) [1, 14]: 83769.16 μg/l air
SMILES: CCOC(=O)C(C)CC (racemic) [(+−)-ethyl 2-methylbutanoate]
Type [1, 4]: TOP (perfuming compounds having a volatility ranging from 70,000 to 100 μg/l in air are referred to as “top notes”)
Odor Threshold (μg/l air) [2, 14]: 1.26E−04 μg/l air

Volatility [1, 3]: 6677.64 μg/l air
Type [1, 12]: Top
Volatility ([1]; Table 10, woody note): 6677.64 μg/l air
SMILES: CCCCC(CC)C(=O)OC (racemic) [(+−)-methyl 2-ethylhexanoate]
Type [1, 4]: TOP (perfuming compounds having a volatility ranging from 70,000 to 100 μg/l in air are referred to as “top notes”)
Odor Threshold ([2]; Table 10, woody note): 1.74E−01 μg/l air

Volatility (μg/l air) ([1]; Table 7, citrus note): 2.12 μg/l air
Type [1, 8]: Bottom
SMILES: CCCCC[C@H]1C(=O)CC[C@@H]1CC(=O)OC (racemic) [methyl 2-((1RS,2RS)-3-oxo-2-pentylcyclopentyl)acetate]
Odor Threshold (μg/l air) ([2]; Table 7, citrus note): 5.77E−04 μg/l air
Odor Value [2, 9]: 3.67E+03

Volatility [1, 3]: 34.65 μg/l air
Type [1, 4]: Bottom
Volatility [1, 5]: 34.65 μg/l air
Type [1, 6]: Bottom
Volatility ([1]; Table 9, gourmand note): 34.65 μg/l air
Type [1, 7]: Bottom
SMILES: CCCC(=O)OC(C)(C)Cc1ccccc1 [1,1-DIMETHYL-2-PHENYLETHYL BUTANOATE]
Odor Threshold [2, 3]: 2.68E−02 μg/l air
Odor Value [2, 3]: 1.29E+03
Odor Threshold [2, 5]: 2.68E−02 μg/l air
Odor Value [2, 5]: 1.29E+03
Odor Threshold ([2]; Table 9, gourmand note): 2.68E−02 μg/l air

Volatility [1, 5]: 17700.00 μg/l air
Type [1, 6]: Top
Volatility ([1]; Table 9, gourmand note): 17700.00 μg/l air
Type [1, 7]: Top
Type [1, 12]: Top
Volatility ([1]; Table 10, woody note): 17700.00 μg/l air
Type [1, 13]: Top
Volatility (μg/l air) [1, 14]: 17700.00 μg/l air
SMILES: CCCCO [1-BUTANOL]
Odor Threshold [2, 5]: 8.70E−02 μg/l air
Odor Value [2, 5]: 2.03E+05
Odor Threshold ([2]; Table 9, gourmand note): 8.70E−02 μg/l air
Odor Threshold ([2]; Table 10, woody note): 8.70E−02 μg/l air
Odor Threshold (μg/l air) [2, 14]: 8.70E−02 μg/l air

Type [1, 13]: Top
Volatility (μg/l air) [1, 14]: 2070.00 μg/l air
SMILES: CCCCCCO [1-hexanol]
Odor Threshold (μg/l air) [2, 14]: 1.17E−01 μg/l air
